The text below walks through data of US20260174701A1, “HIGH STRENGTH SINGLE UNIT DOSE FORMULATIONS AND METHODS OF USE THEREOF” (Praxis Precision Medicines, Inc., priority 2023, published 2026).

In one assay the target is CaV3.1 (Homo sapiens, UniProt O43497). Nature of the assay: In vitro electrophysiology studies. Type of assay: cell-based.
In another assay the target is CaV3.3 (Homo sapiens, UniProt Q9P0X4). Nature of the assay: In vitro electrophysiology studies. Type of assay: cell-based.
The subject of another assay is animal model of ET. Nature of the assay: Animal model of ET. Conditions: in vivo.

Each structure is given as a SMILES string.

Sequence of CaV3.3 (Q9P0X4 whole entry): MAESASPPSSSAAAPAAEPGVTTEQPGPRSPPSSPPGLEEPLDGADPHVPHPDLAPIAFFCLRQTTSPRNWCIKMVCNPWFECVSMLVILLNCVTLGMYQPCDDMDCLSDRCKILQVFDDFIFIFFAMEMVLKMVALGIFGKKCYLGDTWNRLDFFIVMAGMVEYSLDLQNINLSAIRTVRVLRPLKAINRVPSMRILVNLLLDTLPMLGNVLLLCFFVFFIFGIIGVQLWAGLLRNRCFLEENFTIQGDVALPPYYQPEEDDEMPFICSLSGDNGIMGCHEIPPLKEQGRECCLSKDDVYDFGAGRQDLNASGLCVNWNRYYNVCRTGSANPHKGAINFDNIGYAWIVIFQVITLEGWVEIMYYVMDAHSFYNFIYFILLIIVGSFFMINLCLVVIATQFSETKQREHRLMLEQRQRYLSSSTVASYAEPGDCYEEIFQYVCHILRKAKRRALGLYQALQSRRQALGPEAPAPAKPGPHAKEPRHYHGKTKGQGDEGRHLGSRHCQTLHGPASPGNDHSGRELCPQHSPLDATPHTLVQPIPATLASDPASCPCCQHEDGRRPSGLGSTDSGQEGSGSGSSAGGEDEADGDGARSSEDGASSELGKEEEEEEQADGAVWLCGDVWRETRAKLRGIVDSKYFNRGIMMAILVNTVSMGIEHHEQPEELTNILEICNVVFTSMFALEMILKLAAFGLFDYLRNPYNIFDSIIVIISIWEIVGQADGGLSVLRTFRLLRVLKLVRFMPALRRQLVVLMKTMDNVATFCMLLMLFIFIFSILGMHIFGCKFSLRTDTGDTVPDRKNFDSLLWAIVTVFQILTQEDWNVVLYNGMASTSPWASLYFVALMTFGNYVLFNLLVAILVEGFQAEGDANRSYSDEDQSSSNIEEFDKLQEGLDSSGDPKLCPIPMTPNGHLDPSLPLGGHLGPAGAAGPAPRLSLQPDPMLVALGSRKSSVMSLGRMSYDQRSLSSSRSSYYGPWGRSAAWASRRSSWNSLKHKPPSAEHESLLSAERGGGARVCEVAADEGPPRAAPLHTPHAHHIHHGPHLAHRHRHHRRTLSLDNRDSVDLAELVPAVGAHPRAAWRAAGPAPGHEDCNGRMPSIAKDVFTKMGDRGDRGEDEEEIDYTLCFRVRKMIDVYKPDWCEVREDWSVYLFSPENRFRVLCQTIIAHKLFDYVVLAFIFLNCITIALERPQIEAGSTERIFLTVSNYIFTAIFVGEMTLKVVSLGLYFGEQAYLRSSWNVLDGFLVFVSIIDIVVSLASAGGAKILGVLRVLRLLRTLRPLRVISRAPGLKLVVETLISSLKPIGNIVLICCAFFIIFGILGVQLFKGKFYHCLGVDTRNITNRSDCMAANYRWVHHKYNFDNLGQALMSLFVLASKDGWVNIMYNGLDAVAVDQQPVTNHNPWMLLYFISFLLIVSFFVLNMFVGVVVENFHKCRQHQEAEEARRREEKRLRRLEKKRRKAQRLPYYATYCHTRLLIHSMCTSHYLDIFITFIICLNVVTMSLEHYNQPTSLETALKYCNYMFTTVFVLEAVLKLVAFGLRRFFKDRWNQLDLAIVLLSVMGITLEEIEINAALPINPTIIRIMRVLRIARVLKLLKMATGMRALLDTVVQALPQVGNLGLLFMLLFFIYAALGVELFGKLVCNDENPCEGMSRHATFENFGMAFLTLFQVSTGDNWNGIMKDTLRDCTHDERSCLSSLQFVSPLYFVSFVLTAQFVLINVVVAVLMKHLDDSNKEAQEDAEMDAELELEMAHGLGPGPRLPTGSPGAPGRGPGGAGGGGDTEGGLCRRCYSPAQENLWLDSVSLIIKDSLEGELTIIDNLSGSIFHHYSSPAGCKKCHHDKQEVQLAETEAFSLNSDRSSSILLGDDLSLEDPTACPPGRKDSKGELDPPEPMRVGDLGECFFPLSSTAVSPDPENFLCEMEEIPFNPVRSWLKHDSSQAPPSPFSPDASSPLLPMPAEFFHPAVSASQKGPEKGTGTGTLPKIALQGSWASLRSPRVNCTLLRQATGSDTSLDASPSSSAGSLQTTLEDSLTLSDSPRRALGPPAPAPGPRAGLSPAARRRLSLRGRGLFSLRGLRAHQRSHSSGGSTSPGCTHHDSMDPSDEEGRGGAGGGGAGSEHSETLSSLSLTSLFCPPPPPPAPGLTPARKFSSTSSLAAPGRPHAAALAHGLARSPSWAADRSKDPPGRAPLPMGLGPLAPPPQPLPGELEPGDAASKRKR
Sequence of CaV3.1 (O43497 whole entry): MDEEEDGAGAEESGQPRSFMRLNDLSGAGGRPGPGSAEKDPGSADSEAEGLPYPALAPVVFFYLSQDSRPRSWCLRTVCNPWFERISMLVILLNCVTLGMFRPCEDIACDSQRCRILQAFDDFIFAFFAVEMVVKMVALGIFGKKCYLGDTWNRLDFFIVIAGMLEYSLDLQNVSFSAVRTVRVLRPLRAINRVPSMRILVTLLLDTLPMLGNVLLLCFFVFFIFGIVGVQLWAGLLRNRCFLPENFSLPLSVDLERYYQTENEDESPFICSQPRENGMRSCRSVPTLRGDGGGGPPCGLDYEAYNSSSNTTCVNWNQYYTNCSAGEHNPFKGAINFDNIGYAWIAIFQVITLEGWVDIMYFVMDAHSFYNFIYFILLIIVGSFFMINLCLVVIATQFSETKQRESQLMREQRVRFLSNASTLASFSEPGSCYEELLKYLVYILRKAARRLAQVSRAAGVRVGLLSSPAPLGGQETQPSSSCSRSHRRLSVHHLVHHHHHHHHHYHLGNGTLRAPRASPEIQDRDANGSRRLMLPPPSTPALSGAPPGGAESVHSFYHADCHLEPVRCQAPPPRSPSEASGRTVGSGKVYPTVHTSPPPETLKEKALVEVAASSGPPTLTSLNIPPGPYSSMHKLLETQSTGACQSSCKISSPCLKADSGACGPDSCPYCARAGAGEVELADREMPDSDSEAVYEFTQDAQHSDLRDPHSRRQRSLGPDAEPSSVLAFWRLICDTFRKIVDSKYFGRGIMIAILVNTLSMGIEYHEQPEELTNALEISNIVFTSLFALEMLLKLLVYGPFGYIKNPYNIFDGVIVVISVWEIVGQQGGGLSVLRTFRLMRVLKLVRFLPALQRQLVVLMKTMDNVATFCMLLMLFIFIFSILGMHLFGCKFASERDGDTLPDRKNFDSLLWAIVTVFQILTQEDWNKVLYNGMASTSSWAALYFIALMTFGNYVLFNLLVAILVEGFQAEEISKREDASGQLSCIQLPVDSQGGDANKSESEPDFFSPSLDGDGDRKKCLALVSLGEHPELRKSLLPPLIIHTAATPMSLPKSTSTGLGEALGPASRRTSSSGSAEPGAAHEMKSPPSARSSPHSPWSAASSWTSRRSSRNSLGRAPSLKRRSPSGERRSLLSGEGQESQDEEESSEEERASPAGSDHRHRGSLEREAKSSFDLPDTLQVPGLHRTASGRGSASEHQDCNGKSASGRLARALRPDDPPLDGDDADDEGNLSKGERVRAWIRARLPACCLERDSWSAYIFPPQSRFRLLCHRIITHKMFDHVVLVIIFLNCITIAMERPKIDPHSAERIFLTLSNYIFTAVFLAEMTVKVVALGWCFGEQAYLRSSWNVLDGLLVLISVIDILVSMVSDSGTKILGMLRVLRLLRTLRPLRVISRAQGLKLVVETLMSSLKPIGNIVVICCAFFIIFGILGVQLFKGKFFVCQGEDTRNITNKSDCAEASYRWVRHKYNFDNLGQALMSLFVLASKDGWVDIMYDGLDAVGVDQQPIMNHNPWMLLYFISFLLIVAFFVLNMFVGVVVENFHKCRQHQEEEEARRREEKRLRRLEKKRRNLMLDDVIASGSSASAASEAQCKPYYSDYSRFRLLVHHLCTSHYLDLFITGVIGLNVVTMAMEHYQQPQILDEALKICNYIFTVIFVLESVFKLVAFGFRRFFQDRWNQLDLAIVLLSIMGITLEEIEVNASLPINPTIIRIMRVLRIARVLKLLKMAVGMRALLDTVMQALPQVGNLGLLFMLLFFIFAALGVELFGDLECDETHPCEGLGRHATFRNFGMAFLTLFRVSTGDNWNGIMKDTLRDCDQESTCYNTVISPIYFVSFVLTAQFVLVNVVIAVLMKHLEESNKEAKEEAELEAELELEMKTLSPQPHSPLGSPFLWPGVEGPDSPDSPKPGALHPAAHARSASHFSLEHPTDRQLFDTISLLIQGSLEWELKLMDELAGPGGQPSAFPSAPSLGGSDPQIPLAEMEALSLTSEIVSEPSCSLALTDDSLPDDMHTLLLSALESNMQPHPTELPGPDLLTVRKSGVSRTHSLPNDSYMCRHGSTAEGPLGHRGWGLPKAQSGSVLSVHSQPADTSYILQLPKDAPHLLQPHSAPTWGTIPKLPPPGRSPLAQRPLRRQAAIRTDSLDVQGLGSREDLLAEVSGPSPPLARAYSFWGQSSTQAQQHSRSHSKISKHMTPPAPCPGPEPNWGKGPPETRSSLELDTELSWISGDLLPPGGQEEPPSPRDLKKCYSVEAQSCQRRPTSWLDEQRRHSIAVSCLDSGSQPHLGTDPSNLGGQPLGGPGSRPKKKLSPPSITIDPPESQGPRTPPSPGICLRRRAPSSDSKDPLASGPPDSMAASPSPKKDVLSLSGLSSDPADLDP

With `CC(C)(C)NC(=O)CN1CCC(CNC(=O)c2cc(F)cc(Cl)c2)CC1.Cl` [PRAX-944, N-((1-(2-(tert-butylamino)-2-oxoethyl)piperidin-4-yl)methyl)-3-chloro-5-fluorobenzamide hydrochloride], the “Potency for T-type Ca2+ channels” value at CaV3.1 and at CaV3.3 was “nanomolar” each time. Further, the “Activity in an animal model of ET” value in the assay on animal model of ET is recorded as “robust activity”.
